Assays:
[1] = system: mustard beetles (Phaedon cochleariae Fab); assay: Relative toxicity to mustard beetles, topical micro drop; assay type: in vivo; conditions: 5-benzyl-3-furylmethyl (1R)-trans-chrysanthemate = 1000; inverse ratio of LD50; topical, 48 hours
Experimental: (§1) The toxicity of these new esters was tested by the procedure described in detail in our above mentioned application and the following results were obtained:
(§2) The insecticidal acitivity of the esters of the invention was assessed against houseflies and mustard beetles using the following techniques:
Acetone solutions of the test compound were applied ventrally to adult mustard beetles using a micro drop applicator. The treated insects were maintained for 48 hours after which time kill is assessed. Two replicates of 40 to 50 mustard beetles were used at each dose level and 3 to 4 dose levels were used for each compound. Again, LD50 values were calculated and relative toxicities were calculated for the inverse ratios of LD50 (see Elliott et al, J. Sci. Food Agric. 20, 561, (1969)).
(§3) Relative toxicities were calculated by comparison with 5-benzyl-3-furylmethyl(1R)-trans-chrysanthemate which is one of the most toxic chrysanthemate esters known to houseflies and mustard beetles, its toxicity being about 24 times that of allethrin to houseflies and 65 times that of allethrin to mustard beetles.

[2] = system: houseflies (Musca domestica); assay: Relative toxicity to houseflies, topical drop on thorax; assay type: in vivo; conditions: 5-benzyl-3-furylmethyl (1R)-trans-chrysanthemate = 1000; inverse ratio of LD50; topical, female flies
Experimental: as §1, §2
Female flies were treated on the thorax with a one microliter drop of insecticide dissolved in acetone. Two replicates of 15 flies were used at each dose rate and 6 dose rates were used per compound under test. After treatment, the flies were maintained at a temperature of 20° C.±1° and kill was assessed 24 and 48 hours after treatment. LD50 values were calculated in micrograms of insecticide per fly and relative toxicities were calculated from the inverse ratios of the LD50 values. (see Sawicki et al, Bulletin of the World Health Organization, 35,893, (1966) and Sawicki et al, Entomologia and Exp. Appl. 10, 253, (1967)).
as §3

| SMILES | Relative Toxicity, Mustard Beetles [1] | Relative Toxicity, Houseflies [2] |
| --- | --- | --- |
| CC1(C)C(C=C(Cl)Cl)C1C(=O)OCC#CCOc1ccccc1 (racemic) [Compound ME5, 4-Phenoxybut-2-ynyl(1RS)-cis,trans-3-(2,2-dichlorovinyl)-2,2-dimethylcyclopropane carboxylate] | 40 | 300 |
| CC1(C)C(C=C(Cl)Cl)C1C(=O)OC(C#N)c1coc(Cc2ccccc2)c1 (racemic) [Compound P21N, (αRS)-Cyano-5-benzyl-3-furylmethyl-(1RS)-cis-trans-3-(2,2-dichlorovinyl)-2,2-dimethyl cyclopropane carboxylate] | 2000 | 100 |
| CC1(C)C(C=C(Cl)Cl)C1C(=O)OC(C#N)c1cccc(Oc2ccccc2)c1 (racemic) [Compound P29F, (αRS)-cyano-3-phenoxybenzyl(1RS)-cis-trans-2,2-dimethyl-3-(2,2-dichlorovinyl)-cyclopropane carboxylate] | – | 1700 |
| CC1(C)[C@H](C=C(Cl)Cl)[C@H]1C(=O)OCc1cccc(C(=O)c2ccccc2)c1 (racemic) [Compound P39B, 3-benzoylbenzyl(1RS)-trans-2,2-dimethyl-3-(2,2-dichlorovinyl)-cyclopropane carboxylate] | 590 | 10 |
| CC1(C)C(C=C(Cl)Cl)C1C(=O)OC1C=C(Cc2ccccc2)C(=O)C1 (racemic) [ME8, (±)-2-benzylcyclopentenon-4-yl(1RS)-cis,trans-3,(2,2-dichlorovinyl)-2,2-dimethylcyclopropane carboxylate] | 265 | 50 |
| CC1(C)[C@H](C=C(Cl)Cl)[C@H]1C(=O)OCc1cccc(Cc2ccccc2)c1 (relative stereo) [Compound P21I] | 420 | 170 |
| CC1(C)[C@H](C(=O)OCc2cccc(Cc3ccccc3)c2)[C@@H]1C=C(Cl)Cl (relative stereo) [Compound P21J] | 350 | 360 |
| CC1(C)[C@H](C(=O)OC(C#N)c2cccc(Oc3ccccc3)c2)[C@@H]1C=C(Cl)Cl (relative stereo) [Compound P29G, (αRS)-cyano-3-phenoxybenzyl(1RS)-cis-2,2-dimethyl-3-(2,2-dichlorovinyl)-cyclopropane carboxylate] | 2400 | 3800 |
| CC1(C)[C@H](C=C(Cl)Cl)[C@H]1C(=O)OC(C#N)c1cccc(Oc2ccccc2)c1 (relative stereo) [Compound P29H, (αRS)-cyano-3-phenoxybenzyl(1RS)-trans-2,2-dimethyl-3-(2,2-dichlorovinyl)-cyclopropane carboxylate] | 750 | 1800 |
| CC1(C)[C@H](C=C(Cl)Cl)[C@H]1C(=O)OC(C#N)c1cccc(C(=O)c2ccccc2)c1 (relative stereo) [Compound P39F, (αRS)-cyano-3-benzoylbenzyl(1RS)-trans-2,2-dimethyl-3-(2,2-dichlorovinyl)-cyclopropane carboxylate] | 600 | 80 |
| C=CC=CCC1=C(C)C(OC(=O)C2C(C=C(Cl)Cl)C2(C)C)CC1=O (single isomer, unassigned) [Compound P21M] | 370 | 19 |
| C=C/C=C\CC1=C(C)C(OC(=O)[C@@H]2[C@@H](/C=C\CC)C2(C)C)CC1=O (single isomer, unassigned) [Compound R] | 300 | 30 |
| CCCC=C[C@@H]1[C@@H](C(=O)OCc2coc(Cc3ccccc3)c2)C1(C)C [B] | 890 | 630 |
| C=CCC1=C(C)C(OC(=O)[C@@H]2[C@@H](C=C(C)C)C2(C)C)CC1=O (some centres unmarked) [Bioallethrin, reference compound] | 20 | 60 |
| CCCCC=C[C@@H]1[C@@H](C(=O)OCc2coc(Cc3ccccc3)c2)C1(C)C [Compound C] | 420 | 270 |
| CCC=C(C)C1C(C(=O)OCc2coc(Cc3ccccc3)c2)C1(C)C (centres unmarked) [Compound H] | 10 | < 7 |

| SMILES | Relative Toxicity, Mustard Beetles [1] | Relative Toxicity, Houseflies [2] |
| --- | --- | --- |
| CCCC=C(C)C1C(C(=O)OCc2coc(Cc3ccccc3)c2)C1(C)C (centres unmarked) [Compound I] | < 10 | < 7 |
| CC1(C)[C@H](C(=O)OCC#CCOc2ccccc2)[C@@H]1C=C(F)F [Compound ME3, 4-Phenoxybut-2-ynyl(1R)cis-3-(2,2-difluorovinyl)-2,2-dimethylcyclopropane carboxylate] | 30 | 150 |
| CC1(C)[C@H](C=C(F)F)[C@H]1C(=O)OCC#CCOc1ccccc1 [Compound ME4, 4-Phenoxybut-2-ynyl(1R)-trans-3-(2,2-difluorovinyl)-2,2-dimethylcyclopropane carboxylate] | 70 | 60 |
| CC1(C)[C@H](C(=O)OCC#CCOc2ccccc2)[C@@H]1C=C(Br)Br [Compound ME6, 4-Phenoxybut-2-ynyl(1R)cis-3-(2,2-dibromovinyl)-2,2-dimethylcyclopropane carboxylate] | 50 | 390 |
| COC(=O)C=C[C@@H]1[C@@H](C(=O)OCc2coc(Cc3ccccc3)c2)C1(C)C [Compound P19A] | 100 | 91 |
| CCOC(=O)C=C[C@@H]1[C@@H](C(=O)OCc2coc(Cc3ccccc3)c2)C1(C)C [Compound P19B] | 320 | 67 |
| CCCOC(=O)C=C[C@@H]1[C@@H](C(=O)OCc2coc(Cc3ccccc3)c2)C1(C)C [Compound P19C] | 40 | 24 |
| CCOC(=O)C(C)=C[C@@H]1[C@@H](C(=O)OCc2coc(Cc3ccccc3)c2)C1(C)C [Compound P19D] | 440 | 290 |
| CCCOC(=O)C(C)=C[C@@H]1[C@@H](C(=O)OCc2coc(Cc3ccccc3)c2)C1(C)C [Compound P19E] | 500 | 290 |
| CCC(=C[C@@H]1[C@@H](C(=O)OCc2coc(Cc3ccccc3)c2)C1(C)C)C(=O)OC [Compound P19F] | 360 | 130 |
| CCOC(=O)C(=C[C@@H]1[C@@H](C(=O)OCc2coc(Cc3ccccc3)c2)C1(C)C)CC [Compound P19G] | 500 | 300 |
| CCCOC(=O)C(=C[C@@H]1[C@@H](C(=O)OCc2coc(Cc3ccccc3)c2)C1(C)C)CC [Compound P19H] | 50 | 20 |
| CC1(C)[C@H](C=C(Cl)Cl)[C@H]1C(=O)OCc1coc(Cc2ccccc2)c1 [Compound P21A] | 2700 | 2500 |
| C=C(C)C1C(C(=O)OCc2coc(Cc3ccccc3)c2)C1(C)C (centres unmarked) [F] | – | 21 |
| CC=C(C)C1C(C(=O)OCc2coc(Cc3ccccc3)c2)C1(C)C (centres unmarked) [G] | – | 18 |
